{"source": "patent US9216999B2", "about": "“Substituted pyrrolo[2,3-h][1,6]naphthyridines and compositions thereof as JAK inhibitors” (priority 2011, dated 2015)", "key": {"[1]": {"settings": "clinical tests; cited from earlier work"}, "[2]": {"settings": "clinical tests; cited from earlier work", "remark": "listed apart in the source"}, "[3]": {"settings": "monkey model of kidney transplantation; cited from earlier work"}, "[4]": {"settings": "murine asthma model; cited from earlier work"}, "JAK3": {"target": "JAK3 (Homo sapiens (Human), UniProt P52333)", "sequence (P52333 whole entry)": "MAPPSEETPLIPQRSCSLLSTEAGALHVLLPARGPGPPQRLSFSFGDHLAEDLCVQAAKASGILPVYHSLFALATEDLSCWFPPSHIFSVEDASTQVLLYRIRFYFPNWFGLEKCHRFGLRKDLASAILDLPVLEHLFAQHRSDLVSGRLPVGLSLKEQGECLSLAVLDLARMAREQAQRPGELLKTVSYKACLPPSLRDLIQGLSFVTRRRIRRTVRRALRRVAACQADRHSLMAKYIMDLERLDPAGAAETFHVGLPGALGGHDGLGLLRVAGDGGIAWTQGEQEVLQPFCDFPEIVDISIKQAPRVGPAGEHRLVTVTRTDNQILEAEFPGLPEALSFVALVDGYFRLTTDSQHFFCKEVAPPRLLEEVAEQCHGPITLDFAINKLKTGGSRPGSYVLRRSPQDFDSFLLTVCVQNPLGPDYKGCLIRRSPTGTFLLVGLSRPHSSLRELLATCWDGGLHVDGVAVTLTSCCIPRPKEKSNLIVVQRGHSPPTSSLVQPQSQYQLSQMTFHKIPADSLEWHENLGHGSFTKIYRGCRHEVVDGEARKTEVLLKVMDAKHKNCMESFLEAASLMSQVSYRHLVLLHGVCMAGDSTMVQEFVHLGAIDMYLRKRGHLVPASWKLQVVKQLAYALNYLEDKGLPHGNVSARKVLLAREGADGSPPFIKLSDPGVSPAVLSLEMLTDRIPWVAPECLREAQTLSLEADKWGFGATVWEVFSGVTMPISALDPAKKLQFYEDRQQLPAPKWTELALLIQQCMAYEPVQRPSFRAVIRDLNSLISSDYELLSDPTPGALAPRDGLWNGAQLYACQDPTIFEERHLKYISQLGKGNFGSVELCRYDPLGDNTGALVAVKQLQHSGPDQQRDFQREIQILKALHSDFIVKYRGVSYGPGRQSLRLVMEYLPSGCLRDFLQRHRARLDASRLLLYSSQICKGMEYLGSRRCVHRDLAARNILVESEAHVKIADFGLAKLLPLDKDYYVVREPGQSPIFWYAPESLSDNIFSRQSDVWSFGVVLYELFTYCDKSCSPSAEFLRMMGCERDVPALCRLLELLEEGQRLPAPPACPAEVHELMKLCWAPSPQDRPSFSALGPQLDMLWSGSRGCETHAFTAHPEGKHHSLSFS", "test": "JAK3 enzyme assay (Assay Example^b 1)"}, "JAK1": {"target": "JAK1 (Homo sapiens (Human), UniProt P23458)", "test": "JAK1 enzyme assay (Assay Example^b 1)"}, "JAK2": {"target": "JAK2 (Homo sapiens (Human), UniProt O60674)", "test": "JAK2 enzyme assay (Assay Example^b 1)"}, "Tyk2": {"target": "Tyk2 (Homo sapiens (Human), UniProt P29597)", "sequence (P29597 whole entry)": "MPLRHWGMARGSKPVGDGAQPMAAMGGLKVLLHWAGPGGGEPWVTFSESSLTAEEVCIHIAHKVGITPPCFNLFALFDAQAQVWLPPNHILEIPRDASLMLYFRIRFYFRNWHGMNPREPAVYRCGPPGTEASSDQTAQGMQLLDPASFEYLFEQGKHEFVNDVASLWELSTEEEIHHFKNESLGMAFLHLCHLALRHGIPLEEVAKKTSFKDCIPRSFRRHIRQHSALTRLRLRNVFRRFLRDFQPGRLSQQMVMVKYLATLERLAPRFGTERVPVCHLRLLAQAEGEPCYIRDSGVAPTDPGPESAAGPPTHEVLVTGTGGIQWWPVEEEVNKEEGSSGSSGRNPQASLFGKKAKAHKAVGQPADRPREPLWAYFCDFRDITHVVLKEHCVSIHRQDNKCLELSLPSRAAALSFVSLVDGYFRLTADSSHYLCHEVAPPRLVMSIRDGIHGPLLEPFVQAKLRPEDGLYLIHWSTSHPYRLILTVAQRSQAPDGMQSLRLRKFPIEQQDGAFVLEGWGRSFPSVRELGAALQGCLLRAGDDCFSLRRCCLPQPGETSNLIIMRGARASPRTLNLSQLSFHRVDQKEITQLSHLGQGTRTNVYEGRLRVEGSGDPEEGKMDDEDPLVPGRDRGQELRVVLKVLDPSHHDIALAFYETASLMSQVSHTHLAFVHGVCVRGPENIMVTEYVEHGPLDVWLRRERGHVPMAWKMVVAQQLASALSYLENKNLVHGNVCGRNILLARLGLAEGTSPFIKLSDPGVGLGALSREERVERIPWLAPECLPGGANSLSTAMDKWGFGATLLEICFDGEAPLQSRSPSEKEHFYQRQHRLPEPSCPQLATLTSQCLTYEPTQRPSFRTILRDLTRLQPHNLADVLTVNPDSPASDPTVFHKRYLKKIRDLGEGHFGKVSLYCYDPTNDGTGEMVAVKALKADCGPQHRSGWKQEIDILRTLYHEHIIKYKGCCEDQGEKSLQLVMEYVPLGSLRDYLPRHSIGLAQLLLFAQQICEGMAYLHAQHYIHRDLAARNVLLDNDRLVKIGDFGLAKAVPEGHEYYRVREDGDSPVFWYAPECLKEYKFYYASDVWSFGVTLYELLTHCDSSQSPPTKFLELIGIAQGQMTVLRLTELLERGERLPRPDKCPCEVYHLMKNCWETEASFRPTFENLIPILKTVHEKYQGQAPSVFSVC", "test": "Tyk2 enzyme assay (Assay Example^b 1)"}, "[5]": {"settings": "IC50 (μM) JAK3, Table^b 80, ATP 100 μM"}, "[6]": {"settings": "IC50 (μM) JAK1, Table^b 80, ATP 100 μM"}, "[7]": {"settings": "IC50 (μM) JAK2, Table^b 80, ATP 100 μM"}, "[8]": {"settings": "IC50 (μM) TYK2, Table^b 80, ATP 100 μM"}}, "data": [{"molecule": "C[C@@H]1CCN(C(=O)CC#N)C[C@@H]1N(C)c1ncnc2[nH]ccc12", "note": "[CP-690,550]", "values": [{"measurement": "pathology of rheumatoid arthritis", "setting": "[1]", "value": "improved the pathology"}, {"measurement": "pathology of psoriasis", "setting": "[2]", "value": "improved the pathology"}, {"measurement": "rejection", "setting": "[3]", "value": "suppressed rejection"}, {"measurement": "airway inflammation", "setting": "[4]", "value": "suppressed"}]}, {"molecule": "O=c1ccn(C2CCN(Cc3ccc(C(F)(F)F)cc3)CC2)c2c1cnc1[nH]ccc12", "note": "[Synthetic Example^b 56, 1-{1-[4-(trifluoromethyl)benzyl]piperidin-4-yl}-1H-pyrrolo[2,3-h][1,6]naphthyridin-4(7H)-one]", "values": [{"measurement": "IC50", "setting": "JAK3; [5]", "value": "> 1", "unit": "µM"}, {"measurement": "IC50", "setting": "JAK1; [6]", "value": 0.019, "unit": "µM"}, {"measurement": "IC50", "setting": "JAK2; [7]", "value": 0.24, "unit": "µM"}, {"measurement": "IC50", "setting": "Tyk2; [8]", "value": "> 1", "unit": "µM"}]}, {"molecule": "N#CCn1c(=O)c2cnc3[nH]ccc3c2n(C2CCCCC2)c1=O", "note": "[Synthetic Example^b 137, 2-(1-Cyclohexyl-2,4-dioxo-1H-pyrrolo[3′,2′:5,6]pyrido[4,3-d]pyrimidin-3(2H,4H,7H)-yl)acetonitrile]", "values": [{"measurement": "IC50", "setting": "JAK3; IC50 (μM) JAK3, ATP 100 μM", "value": 0.91, "unit": "µM"}, {"measurement": "IC50", "setting": "JAK1; IC50 (μM) JAK1, ATP 100 μM", "value": 0.057, "unit": "µM"}, {"measurement": "IC50", "setting": "JAK2; IC50 (μM) JAK2, ATP 100 μM", "value": "> 1", "unit": "µM"}, {"measurement": "IC50", "setting": "Tyk2; IC50 (μM) TYK2, ATP 100 μM", "value": "> 1", "unit": "µM"}]}, {"molecule": "Cn1c(=O)c2cnc3[nH]ccc3c2n(C2CCCCC2)c1=O", "note": "[Synthetic Example^b 138, 1-cyclohexyl-3-methyl-1H-pyrrolo[3′,2′:5,6]pyrido[4,3-d]pyrimidine-2,4(3H,7H)-dione]", "values": [{"measurement": "IC50", "setting": "JAK3; IC50 (μM) JAK3, ATP 100 μM", "value": 0.51, "unit": "µM"}, {"measurement": "IC50", "setting": "JAK1; IC50 (μM) JAK1, ATP 100 μM", "value": 0.04, "unit": "µM"}, {"measurement": "IC50", "setting": "JAK2; IC50 (μM) JAK2, ATP 100 μM", "value": 0.42, "unit": "µM"}, {"measurement": "IC50", "setting": "Tyk2; IC50 (μM) TYK2, ATP 100 μM", "value": "> 1", "unit": "µM"}]}, {"molecule": "O=c1ncn(C2CCCCC2)c2c1cnc1[nH]ccc12", "note": "[compound 13]", "values": [{"measurement": "IC50", "setting": "JAK3; IC50 (μM) JAK3, Table^b 78, ATP 100 μM", "value": 1.3, "unit": "µM"}, {"measurement": "IC50", "setting": "JAK1; IC50 (μM) JAK1, Table^b 78, ATP 100 μM", "value": 0.042, "unit": "µM"}, {"measurement": "IC50", "setting": "JAK2; IC50 (μM) JAK2, Table^b 79, ATP 100 μM", "value": 0.56, "unit": "µM"}, {"measurement": "IC50", "setting": "Tyk2; IC50 (μM) TYK2, Table^b 79, ATP 100 μM", "value": "> 1", "unit": "µM"}]}, {"molecule": "O=C1NCc2cnc3[nH]ccc3c2N1C1CCN(S(=O)(=O)Cc2ccccc2)CC1", "note": "[compound 60]", "values": [{"measurement": "IC50", "setting": "JAK3; [5]", "value": "> 1", "unit": "µM"}, {"measurement": "IC50", "setting": "JAK1; [6]", "value": 0.35, "unit": "µM"}, {"measurement": "IC50", "setting": "JAK2; [7]", "value": 0.48, "unit": "µM"}, {"measurement": "IC50", "setting": "Tyk2; [8]", "value": "> 1", "unit": "µM"}]}, {"molecule": "O=C1NCc2cnc3[nH]ccc3c2N1C1CCNCC1", "note": "[compound 68]", "values": [{"measurement": "IC50", "setting": "JAK3; [5]", "value": 9.1, "unit": "µM"}, {"measurement": "IC50", "setting": "JAK1; [6]", "value": 0.5, "unit": "µM"}, {"measurement": "IC50", "setting": "JAK2; [7]", "value": 2.4, "unit": "µM"}, {"measurement": "IC50", "setting": "Tyk2; [8]", "value": "> 1", "unit": "µM"}]}, {"molecule": "O=C(c1ccc(Cl)s1)N1CCC(n2ccc(=O)c3cnc4[nH]ccc4c32)CC1", "note": "[compound 87]", "values": [{"measurement": "IC50", "setting": "JAK3; [5]", "value": "> 1", "unit": "µM"}, {"measurement": "IC50", "setting": "JAK1; [6]", "value": 0.025, "unit": "µM"}, {"measurement": "IC50", "setting": "JAK2; [7]", "value": 0.38, "unit": "µM"}, {"measurement": "IC50", "setting": "Tyk2; [8]", "value": "> 1", "unit": "µM"}]}, {"molecule": "O=c1[nH]c(=O)n(C2CCN(Cc3ccc(Br)s3)CC2)c2c1cnc1[nH]ccc12", "note": "[compound 89]", "values": [{"measurement": "IC50", "setting": "JAK3; IC50 (μM) JAK3, ATP 100 μM", "value": "> 1", "unit": "µM"}, {"measurement": "IC50", "setting": "JAK1; IC50 (μM) JAK1, ATP 100 μM", "value": 0.011, "unit": "µM"}, {"measurement": "IC50", "setting": "JAK2; IC50 (μM) JAK2, ATP 100 μM", "value": "> 1", "unit": "µM"}, {"measurement": "IC50", "setting": "Tyk2; IC50 (μM) TYK2, ATP 100 μM", "value": "> 1", "unit": "µM"}]}, {"molecule": "O=c1ccn(C2C3CC4CC2CC(O)(C4)C3)c2c1cnc1[nH]ccc12", "note": "(centres unmarked) [compound 106]", "values": [{"measurement": "IC50", "setting": "JAK3; IC50 (μM) JAK3, ATP 100 μM", "value": 0.61, "unit": "µM"}, {"measurement": "IC50", "setting": "JAK1; IC50 (μM) JAK1, ATP 100 μM", "value": 0.047, "unit": "µM"}, {"measurement": "IC50", "setting": "JAK2; IC50 (μM) JAK2, ATP 100 μM", "value": 0.25, "unit": "µM"}, {"measurement": "IC50", "setting": "Tyk2; IC50 (μM) TYK2, ATP 100 μM", "value": 0.38, "unit": "µM"}]}, {"molecule": "O=c1ccn(C2C3CC4CC2CC(O)(C4)C3)c2c1cnc1[nH]ccc12", "note": "(centres unmarked) [compound 107]", "values": [{"measurement": "IC50", "setting": "JAK3; IC50 (μM) JAK3, ATP 100 μM", "value": 0.41, "unit": "µM"}, {"measurement": "IC50", "setting": "JAK1; IC50 (μM) JAK1, ATP 100 μM", "value": 0.31, "unit": "µM"}, {"measurement": "IC50", "setting": "JAK2; IC50 (μM) JAK2, ATP 100 μM", "value": 0.6, "unit": "µM"}, {"measurement": "IC50", "setting": "Tyk2; IC50 (μM) TYK2, ATP 100 μM", "value": "> 1", "unit": "µM"}]}, {"molecule": "O=c1[nH]c(=O)n(C2CCN(CCN3CCOCC3)CC2)c2c1cnc1[nH]ccc12", "note": "[compound 108]", "values": [{"measurement": "IC50", "setting": "JAK3; IC50 (μM) JAK3, ATP 100 μM", "value": "> 1", "unit": "µM"}, {"measurement": "IC50", "setting": "JAK1; IC50 (μM) JAK1, ATP 100 μM", "value": 0.37, "unit": "µM"}, {"measurement": "IC50", "setting": "JAK2; IC50 (μM) JAK2, ATP 100 μM", "value": "> 1", "unit": "µM"}, {"measurement": "IC50", "setting": "Tyk2; IC50 (μM) TYK2, ATP 100 μM", "value": "> 1", "unit": "µM"}]}, {"molecule": "CC(C)(C)OC(=O)N1CCC(NCCN2CCC(n3c(=O)[nH]c(=O)c4cnc5[nH]ccc5c43)CC2)CC1", "note": "[compound 109]", "values": [{"measurement": "IC50", "setting": "JAK3; IC50 (μM) JAK3, ATP 100 μM", "value": "> 1", "unit": "µM"}, {"measurement": "IC50", "setting": "JAK1; IC50 (μM) JAK1, ATP 100 μM", "value": 0.92, "unit": "µM"}, {"measurement": "IC50", "setting": "JAK2; IC50 (μM) JAK2, ATP 100 μM", "value": "> 1", "unit": "µM"}, {"measurement": "IC50", "setting": "Tyk2; IC50 (μM) TYK2, ATP 100 μM", "value": "> 1", "unit": "µM"}]}, {"molecule": "O=c1[nH]c(=O)n(C2CCN(CCNC3CCNCC3)CC2)c2c1cnc1[nH]ccc12", "note": "[compound 111]", "values": [{"measurement": "IC50", "setting": "JAK3; IC50 (μM) JAK3, ATP 100 μM", "value": "> 1", "unit": "µM"}, {"measurement": "IC50", "setting": "JAK1; IC50 (μM) JAK1, ATP 100 μM", "value": 0.44, "unit": "µM"}, {"measurement": "IC50", "setting": "JAK2; IC50 (μM) JAK2, ATP 100 μM", "value": "> 1", "unit": "µM"}, {"measurement": "IC50", "setting": "Tyk2; IC50 (μM) TYK2, ATP 100 μM", "value": "> 1", "unit": "µM"}]}]}
